Results reported in patent US20240199548A1, “NOVEL COMPOUNDS USEFUL AS STING AGONISTS AND USES THEREOF” (Jacobio Pharmaceuticals Co., Ltd., priority 2021, published 2024).

biological target: human STING WT protein (Homo sapiens, UniProt Q86WV6); assay: Human STING WT binding assay (Cisbio HTRF); conditions: HTRF competition with STING WT ligand d2, 6 His-tagged human STING WT, 3 hours at RT; read-out: hSTING WT binding IC50
Procedure: Example A: Human STING WT Binding Assay
Cisbio Bioassays' human STING WT binding assay (#64 BDSTGPEG & 64 BDSTGPEH, Cisbio) is for quantitative measurement of human STING WT ligand using HTRF® technology.
Negative control: Dispense 5 μL of diluent into each negative control well. Standard: Dispense 5 μL of each Human STING WT Standard 2′3′-cGAMP (Std 0-Std 7) into each standard well. Compound: Dispense 5 μL of compound into each compound well.
Negative control: Add 5 μL of detection buffer to all wells. Other wells: Add 5 μL of human STING WT protein 6 His-tagged protein to all wells.
Add 10 μL of premixed STING WT ligand d2 reagent and 6 His Tb antibody working solution to all wells.
Seal the plate and incubate 3 hours at RT or at Over Night if necessary.
Remove the plate sealer and read on an HTRF® compatible reader (PerkinElmer, USA). Results were analyzed with a two-wavelength signal ratio:intensity (665 nm)/intensity (620 nm).
Fit the data in GraphPad to obtain IC50 values using equation (2)
Y=Bottom+(Top−Bottom)/(1+10^((Log IC50−X)*Hill Slope)) Equation (2)
Y is HTRF Ratio and X is compound concentration.

human STING WT protein, sequence (Q86WV6 whole entry H232R): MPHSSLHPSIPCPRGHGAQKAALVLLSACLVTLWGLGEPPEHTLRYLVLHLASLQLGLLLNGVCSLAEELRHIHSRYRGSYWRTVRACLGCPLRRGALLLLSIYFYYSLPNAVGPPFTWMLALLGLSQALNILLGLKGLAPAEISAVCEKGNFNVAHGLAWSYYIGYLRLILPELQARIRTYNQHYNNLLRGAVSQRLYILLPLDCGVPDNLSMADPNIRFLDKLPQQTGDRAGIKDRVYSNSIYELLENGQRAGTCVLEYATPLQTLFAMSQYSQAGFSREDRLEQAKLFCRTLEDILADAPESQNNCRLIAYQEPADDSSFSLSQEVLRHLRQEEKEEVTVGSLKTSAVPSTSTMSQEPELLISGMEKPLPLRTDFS

SMILES	IC50
COc1cc2c(cc1OCCCOc1cc3c(cc1OC)CN(C(=O)CCC(=O)O)C3)CN(C(=O)CCC(=O)O)C2 [Example 1, 4,4′-((propane-1,3-diylbis(oxy))bis(6-methoxyisoindoline-5,2-diyl))bis(4-oxobutanoic Acid)]	< 0.1 nM
COc1cc2c(cc1OCCCOc1cc3c(c(F)c1OC)CN(C(=O)CCC(=O)O)C3)CN(C(=O)CCC(=O)O)C2 [Example 2, 4-(6-(3-((2-(3-carboxypropanoyl)-6-methoxyisoindolin-5-yl)oxy)propoxy)-4-fluoro-5-methoxyisoindolin-2-yl)-4-oxobutanoic Acid]	33.7 nM
COc1cc2c(cc1OCCCOc1cc3c(cc1OC)CN(C(=O)C[C@H](C)C(=O)O)C3)CN(C(=O)CCC(=O)O)C2 [Example 3, Sodium (S)-4-(5-(3-((2-(3-carboxylatopropanoyl)-6-methoxyisoindolin-5-yl)oxy)propoxy)-6-methoxyisoindolin-2-yl)-2-methyl-4-oxobutanoate]	1.63 nM
COc1cc2c(cc1OCCCOc1c(OC)cc3c(c1F)CN(C(=O)CCC(=O)O)C3)CN(C(=O)CCC(=O)O)C2 [Example 4, 4-(5-(3-((2-(3-carboxypropanoyl)-4-fluoro-6-methoxyisoindolin-5-yl)oxy)propoxy)-6-methoxyisoindolin-2-yl)-4-oxobutanoic Acid]	0.68 nM
COc1cc2c(nc1OCCCOc1nc3c(cc1OC)CN(C(=O)CCC(=O)O)C3)CN(C(=O)CCC(=O)O)C2 [Example 5, 4,4′-((propane-1,3-diylbis(oxy))bis(3-methoxy-5,7-dihydro-6H-pyrrolo[3,4-b]pyridine-2,6-diyl))bis(4-oxobutanoic Acid)]	3.28 nM
COc1cc2c(c(F)c1OCCCOc1c(OC)cc3c(c1F)CN(C(=O)CCC(=O)O)C3)CN(C(=O)CCC(=O)O)C2 [Example 9, 4,4′-((propane-1,3-diylbis(oxy))bis(4-fluoro-6-methoxyisoindoline-5,2-diyl))bis(4-oxobutanoic acid)]	0.32 nM
C=C(COc1cc2c(cc1OC)CN(C(=O)CCC(=O)O)C2)COc1cc2c(cc1OC)CN(C(=O)CCC(=O)O)C2 [Example 10, 4,4′-(((2-methylenepropane-1,3-diyl)bis(oxy))bis(6-methoxyisoindoline-5,2-diyl))bis(4-oxobutanoic acid)]	150 nM
COc1cc2c(c(F)c1OCCCOc1c(OC)cc3c(c1Cl)CN(C(=O)CCC(=O)O)C3)CN(C(=O)CCC(=O)O)C2 [Example 13, 4-(5-(3-((2-(3-carboxypropanoyl)-4-chloro-6-methoxyisoindolin-5-yl)oxy)propoxy)-4-fluoro-6-methoxyisoindolin-2-yl)-4-oxobutanoic acid]	149 nM
COc1cc2c(cc1OCCCOc1cc3c(cc1OC)CN(C(=O)NCCC(=O)O)C3)CN(C(=O)CCC(=O)O)C2 [Example 14, 4-(5-(3-((2-((2-carboxyethyl)carbamoyl)-6-methoxyisoindolin-5-yl)oxy)propoxy)-6-methoxyisoindolin-2-yl)-4-oxobutanoic acid]	144 nM
